Data from the NIST ThermoML archive (doi:10.1016/j.jct.2011.08.016).

Test: xn = mol fraction of the nth substance listed
Conditions: Liquid, Vibrating tube method

CCCCCCCCCC [decane] + CCCCCCC
Conditions	mass density [kg/m3]
353.08 K, 19000 kPa, x2 = 0.777	668.89
353.08 K, 20000 kPa, x2 = 0.5219	683.14
353.08 K, 20000 kPa, x2 = 0.777	669.88
353.08 K, 21000 kPa, x2 = 0.5219	684.06
353.08 K, 21000 kPa, x2 = 0.777	670.85
353.08 K, 22000 kPa, x2 = 0.5219	684.96
353.08 K, 22000 kPa, x2 = 0.777	671.79
353.08 K, 23000 kPa, x2 = 0.5219	685.84
353.08 K, 23000 kPa, x2 = 0.777	672.72
353.08 K, 24000 kPa, x2 = 0.5219	686.7
353.08 K, 24000 kPa, x2 = 0.777	673.63
353.08 K, 25000 kPa, x2 = 0.5219	687.54
353.08 K, 25000 kPa, x2 = 0.777	674.52
353.09 K, 1000 kPa, x2 = 0.2594	674.78
353.09 K, 2000 kPa, x2 = 0.2594	675.91
353.09 K, 3000 kPa, x2 = 0.2594	677.03
353.09 K, 4000 kPa, x2 = 0.2594	678.12
353.09 K, 5000 kPa, x2 = 0.2594	679.23
353.09 K, 6000 kPa, x2 = 0.2594	680.3
353.09 K, 7000 kPa, x2 = 0.2594	681.37
353.09 K, 8000 kPa, x2 = 0.2594	682.43
353.09 K, 9000 kPa, x2 = 0.2594	683.51
353.09 K, 10000 kPa, x2 = 0.2594	684.56
353.09 K, 11000 kPa, x2 = 0.2594	685.6
353.09 K, 12000 kPa, x2 = 0.2594	686.61
353.09 K, 13000 kPa, x2 = 0.2594	687.61
353.09 K, 14000 kPa, x2 = 0.2594	688.6
353.09 K, 15000 kPa, x2 = 0.2594	689.58
353.09 K, 16000 kPa, x2 = 0.2594	690.55
353.09 K, 17000 kPa, x2 = 0.2594	691.5
353.09 K, 18000 kPa, x2 = 0.2594	692.42
353.09 K, 19000 kPa, x2 = 0.2594	693.33
353.09 K, 20000 kPa, x2 = 0.2594	694.24
353.09 K, 21000 kPa, x2 = 0.2594	695.13
353.09 K, 22000 kPa, x2 = 0.2594	695.95
353.09 K, 23000 kPa, x2 = 0.2594	696.8
353.09 K, 24000 kPa, x2 = 0.2594	697.62
353.09 K, 25000 kPa, x2 = 0.2594	698.42
353.12 K, 1000 kPa, x2 = 0.952	636.17
353.12 K, 2000 kPa, x2 = 0.952	637.58
353.12 K, 3000 kPa, x2 = 0.952	638.96
353.12 K, 4000 kPa, x2 = 0.952	640.34
353.12 K, 5000 kPa, x2 = 0.952	641.71
353.12 K, 6000 kPa, x2 = 0.952	643.05
353.12 K, 7000 kPa, x2 = 0.952	644.36
353.12 K, 8000 kPa, x2 = 0.952	645.65
353.12 K, 9000 kPa, x2 = 0.952	646.91
353.12 K, 10000 kPa, x2 = 0.952	648.14
353.12 K, 11000 kPa, x2 = 0.952	649.36
353.12 K, 12000 kPa, x2 = 0.952	650.55
353.12 K, 13000 kPa, x2 = 0.952	651.72
353.12 K, 14000 kPa, x2 = 0.952	652.87
353.12 K, 15000 kPa, x2 = 0.952	654
353.12 K, 16000 kPa, x2 = 0.952	655.12
353.12 K, 17000 kPa, x2 = 0.952	656.22
353.12 K, 18000 kPa, x2 = 0.952	657.29
353.12 K, 19000 kPa, x2 = 0.952	658.35
353.12 K, 20000 kPa, x2 = 0.952	659.4
353.12 K, 21000 kPa, x2 = 0.952	660.42
353.12 K, 22000 kPa, x2 = 0.952	661.43
353.12 K, 23000 kPa, x2 = 0.952	662.41
353.12 K, 24000 kPa, x2 = 0.952	663.35
353.12 K, 25000 kPa, x2 = 0.952	664.3
363.02 K, 1000 kPa, x2 = 0.5219	654.13
363.02 K, 1000 kPa, x2 = 0.777	639
363.02 K, 2000 kPa, x2 = 0.5219	655.44
363.02 K, 2000 kPa, x2 = 0.777	640.47
363.02 K, 3000 kPa, x2 = 0.5219	656.74
363.02 K, 3000 kPa, x2 = 0.777	641.89
363.02 K, 4000 kPa, x2 = 0.5219	657.94
363.02 K, 4000 kPa, x2 = 0.777	643.28
363.02 K, 5000 kPa, x2 = 0.5219	659.19
363.02 K, 5000 kPa, x2 = 0.777	644.65
363.02 K, 6000 kPa, x2 = 0.5219	660.44
363.02 K, 6000 kPa, x2 = 0.777	646
363.02 K, 7000 kPa, x2 = 0.5219	661.67
363.02 K, 7000 kPa, x2 = 0.777	647.32
363.02 K, 8000 kPa, x2 = 0.5219	662.86
363.02 K, 8000 kPa, x2 = 0.777	648.61
363.02 K, 9000 kPa, x2 = 0.5219	664.05
363.02 K, 9000 kPa, x2 = 0.777	649.89
363.02 K, 10000 kPa, x2 = 0.5219	665.24
363.02 K, 10000 kPa, x2 = 0.777	651.15
363.02 K, 11000 kPa, x2 = 0.5219	666.41
363.02 K, 11000 kPa, x2 = 0.777	652.39
363.02 K, 12000 kPa, x2 = 0.5219	667.56
363.02 K, 12000 kPa, x2 = 0.777	653.61
363.02 K, 13000 kPa, x2 = 0.5219	668.7
363.02 K, 13000 kPa, x2 = 0.777	654.81
363.02 K, 14000 kPa, x2 = 0.5219	669.81
363.02 K, 14000 kPa, x2 = 0.777	655.99
363.02 K, 15000 kPa, x2 = 0.5219	670.91
363.02 K, 15000 kPa, x2 = 0.777	657.15
363.02 K, 16000 kPa, x2 = 0.5219	671.98
